This passage reports IC50 results from patent US11033547B2, “Carboxamide-pyrimidine derivatives as SHP2 antagonists” (Merck Patent GmbH, priority 2019, dated 2021).

For the experiment, the target named is Full length SHP2 protein (Recombinant Human SHP-2) (Homo sapiens, UniProt Q06124). The experiment in a line: SHP2 biochemical assay (DiFMUP substrate, activating peptide IRSI_2pY). The following applies: DiFMUP substrate, activating peptide IRSI_2pY, 60 min at RT; read-out: SHP-2 Biochemical assay IC50. As to the method:
The inhibition of SHP2 by compounds of the invention was monitored using the surrogate substrate DiFMUP after protein activation by a peptide bearing two appropriately spaced phosphotyrosine. […] The generation of the DiFMU product by activated SHP2 was monitored through Fluorescence measurement with a PerkinElmer Envision reader.
The inhibitor dose response curves were analyzed with Genedata Screener.

Bounds are passed on as bounds.

Sequence of Full length SHP2 protein (Recombinant Human SHP-2) (Q06124 2-593 limits assumed): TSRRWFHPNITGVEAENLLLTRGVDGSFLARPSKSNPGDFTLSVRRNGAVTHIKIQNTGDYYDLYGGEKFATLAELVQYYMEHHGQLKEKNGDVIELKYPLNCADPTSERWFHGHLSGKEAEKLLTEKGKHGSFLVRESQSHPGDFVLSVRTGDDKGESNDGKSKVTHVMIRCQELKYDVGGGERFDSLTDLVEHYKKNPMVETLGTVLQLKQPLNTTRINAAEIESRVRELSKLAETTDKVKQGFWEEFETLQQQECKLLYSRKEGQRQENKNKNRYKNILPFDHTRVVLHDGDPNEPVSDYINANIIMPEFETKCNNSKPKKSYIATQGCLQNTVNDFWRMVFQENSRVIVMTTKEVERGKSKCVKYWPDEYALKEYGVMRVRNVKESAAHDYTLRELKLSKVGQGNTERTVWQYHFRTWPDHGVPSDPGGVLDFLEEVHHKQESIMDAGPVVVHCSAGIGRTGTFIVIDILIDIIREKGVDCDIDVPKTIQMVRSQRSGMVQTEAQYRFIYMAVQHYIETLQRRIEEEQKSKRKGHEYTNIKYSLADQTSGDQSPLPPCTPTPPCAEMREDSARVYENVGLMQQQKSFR

For orientation: IC50 means the point on the concentration scale where inhibition reaches its midpoint. In the case of `NC(=O)c1nc(N[C@@H]2CCNC[C@@H]2F)nc(N)c1-c1cccc(Cl)c1Cl` (atropisomer, axis not shown; (M)) [Compound 64, (5M)-6-amino-5-(2,3-dichlorophenyl)-2-{[(3S,4R)-3-fluoropiperidin-4-yl]amino}-pyrimidine-4-carboxamide], the IC50 amounted to 10 µM.
The figure for `CC1(N)CCN(c2nc(Cl)c(-c3cccc(Cl)c3Cl)c(C(N)=O)n2)CC1` (atropisomer, axis not shown; (M)) [Compound 78, (4M)-2-(4-amino-4-methylpiperidin-1-yl)-6-chloro-5-(2,3-dichlorophenyl)-pyrimidine-4-carboxamide] is 1.4 µM; for `Cc1nc(N[C@H]2CCC[C@@H](N)C2)nc(C(N)=O)c1-c1cccc(Cl)c1Cl` (atropisomer, axis not shown; (M)) [Compound 87, (4M)-2-{[(1S,3R)-3-aminocyclohexyl]amino}-5-(2,3-dichlorophenyl)-6-methylpyrimidine-4-carboxamide] it is 1.2 µM; for `NC[C@@]12CCC[C@@H]1CN(c1nc(N)c(-c3cccc(Cl)c3Cl)c(C(N)=O)n1)C2` (atropisomer, axis not shown; (M)) [Compound 99, (5M)-2-[(3aR,6aS)-3a-(aminomethyl)octahydrocyclopenta[c]pyrrol-2-yl]-6-amino-5-(2,3-dichlorophenyl)pyrimidine-4-carboxamide] it is 3.7 µM.
In the case of `NC(=O)c1nc(N2CCC(N)(C(F)F)CC2)nc(N)c1-c1cccc(Cl)c1Cl` (atropisomer, axis not shown; (M)) [Compound 107, (5M)-6-amino-2-[4-amino-4-(difluoromethyl)piperidin-1-yl]-5-(2,3-dichlorophenyl)-pyrimidine-4-carboxamide], the IC50 came out at 3.2 µM.
The result for `C[C@]1(N)CCCN(c2nc(N)c(-c3cccc(Cl)c3Cl)c(C(N)=O)n2)CC1` (atropisomer, axis not shown; (M)) [Compound 110, (5M)-6-amino-2-[(4S)-4-amino-4-methylazepan-1-yl]-5-(2,3-dichlorophenyl)-pyrimidine-4-carboxamide] reads 4.4 µM; that for `COc1c(F)ccc(-c2c(C)nc(N3CCC(C)(N)CC3)nc2C(N)=O)c1Cl` (atropisomer, axis not shown; (M)) [Compound 115, (4M)-2-(4-amino-4-methylpiperidin-1-yl)-5-(2-chloro-4-fluoro-3-methoxyphenyl)-6-methylpyrimidine-4-carboxamide], 0.57 µM.
As for `Cc1nc(N2CCC(C)(N)CC2)nc(C(N)=O)c1-c1cccc(Cl)c1Cl` (atropisomer, axis not shown; (P)) [Compound 31, (4P)-2-(4-amino-4-methylpiperidin-1-yl)-5-(2,3-dichlorophenyl)-6-methylpyrimidine-4-carboxamide], the IC50 was determined as 7.9 µM.
The result for `Cc1nc(N2CCOC[C@H]2CN)nc(C(N)=O)c1-c1cccc(Cl)c1Cl` (atropisomer, axis not shown; (P)) [Compound 47, (4P)-2-[(3R)-3-(aminomethyl)morpholin-4-yl]-5-(2,3-dichlorophenyl)-6-methylpyrimidine-4-carboxamide] reads greater than 10 µM.
With `Cc1nc(N2CCOC[C@@H]2CN)nc(C(N)=O)c1-c1cccc(Cl)c1Cl` (atropisomer, axis not shown; (P)) [Compound 48, (4P)-2-[(3S)-3-(aminomethyl)morpholin-4-yl]-5-(2,3-dichlorophenyl)-6-methylpyrimidine-4-carboxamide], the IC50 was greater than 10 µM.
The result for `Cc1nc(N[C@@H]2CCC[C@H](N)C2)nc(C(N)=O)c1-c1cccc(Cl)c1Cl` (atropisomer, axis not shown; (P)) [Compound 89, (4P)-2-{[(1R,3S)-3-aminocyclohexyl]amino}-5-(2,3-dichlorophenyl)-6-methylpyrimidine-4-carboxamide] reads 13 µM; that for `Cc1nc(N[C@H]2CCC[C@@H](N)C2)nc(C(N)=O)c1-c1cccc(Cl)c1Cl` (atropisomer, axis not shown; (P)) [Compound 90, (4P)-2-{[(1S,3R)-3-aminocyclohexyl]amino}-5-(2,3-dichlorophenyl)-6-methylpyrimidine-4-carboxamide], greater than 10 µM; that for `NC(=O)c1nc(N2CCC(N)(C(F)F)CC2)nc(N)c1-c1cccc(Cl)c1Cl` (atropisomer, axis not shown; (P)) [Compound 106, (5P)-6-amino-2-[4-amino-4-(difluoromethyl)piperidin-1-yl]-5-(2,3-dichlorophenyl)-pyrimidine-4-carboxamide], 15 µM.
The result for `C[C@]1(N)CCCN(c2nc(N)c(-c3cccc(Cl)c3Cl)c(C(N)=O)n2)CC1` (atropisomer, axis not shown; (P)) [Compound 108, (5P)-6-amino-2-[(4S)-4-amino-4-methylazepan-1-yl]-5-(2,3-dichlorophenyl)-pyrimidine-4-carboxamide] reads 1.3 µM; that for `COc1c(F)ccc(-c2c(C)nc(N3CCC(C)(N)CC3)nc2C(N)=O)c1Cl` (atropisomer, axis not shown; (P)) [Compound 116, (4P)-2-(4-amino-4-methylpiperidin-1-yl)-5-(2-chloro-4-fluoro-3-methoxyphenyl)-6-methylpyrimidine-4-carboxamide], greater than 10 µM.
`NC(=O)c1nc(N2C[C@H]3CCCCC[C@@H](C2)C3N)nc(N)c1-c1cccc(Cl)c1Cl` (single isomer, unassigned) [Compound 14]: the half-inhibitory concentration (IC50) came to 8.8 µM.
Take `Cc1nc(N2CCC3(CC2)CO[C@@H](C)[C@H]3N)nc(C(N)=O)c1-c1cccc(Cl)c1Cl` (single isomer, unassigned) [Compound 94]: the IC50 came out at 2.6 µM.
Regarding `NC[C@@]12CCCC[C@@H]1CN(c1nc(N)c(-c3cccc(Cl)c3Cl)c(C(N)=O)n1)C2` (single isomer, unassigned) [Compound 102], the IC50 is 17 µM.
The result for `NC[C@]12CCCC[C@H]1CN(c1nc(N)c(-c3cccc(Cl)c3Cl)c(C(N)=O)n1)C2` (single isomer, unassigned) [Compound 103] reads 5.6 µM.
The result for `NC[C@]12CCC[C@H]1CN(c1nc(N)c(-c3cccc(Cl)c3Cl)c(C(N)=O)n1)C2` (single isomer, unassigned) [Compound 105] reads 10 µM; that for `Cc1nc(N2CCC3(CCC[C@H]3N)CC2)nc(C(N)=O)c1-c1cccc(Cl)c1Cl` (single isomer, unassigned) [Compound 113], 0.66 µM.
For the compound `NC(=O)c1nc(N2CCC3(CC2)Cc2ccccc2[C@H]3N)nc(N)c1-c1cccc(Cl)c1Cl` (single isomer, unassigned) [Compound 118], the 50% inhibitory concentration (IC50) stood at 0.041 µM.
The result for `NC(=O)c1nc(N2CCC3(CC2)Oc2ncccc2C3N)nc(N)c1-c1cccc(Cl)c1Cl` (single isomer, unassigned) [Compound 128] reads 0.006 µM; that for `NC(=O)c1nc(N2CCC3(CC2)Oc2ncccc2C3N)nc(N)c1-c1cccc(Cl)c1Cl` (single isomer, unassigned) [Compound 129], 0.33 µM.
Take `NC(=O)c1nc(N2CCC3(CC2)Oc2ncccc2[C@@H]3N)nc(N)c1-c1cccc(Cl)c1Cl` (single isomer, unassigned) [Compound 130]: the IC50 is 0.077 µM.
The figure for `NC(=O)c1nc(N2CCC3(CC2)Oc2ncccc2[C@@H]3N)nc(N)c1-c1cccc(Cl)c1Cl` (single isomer, unassigned) [Compound 131] is 7 µM.
The figure for `Cc1nc(N2CCC3(CCC[C@H]3N)C2)nc(C(N)=O)c1-c1cccc(Cl)c1Cl` (stereo in doubt) [Compound 35, 2-((R)-6-Amino-2-aza-spiro[4.4]non-2-yl)-5-(2,3-dichloro-phenyl)-6-methyl-pyrimidine-4-carboxylic acid amide] is 1.1 µM.
The figure for `Cc1nc(N2CCC3(CCC[C@@H]3N)C2)nc(C(N)=O)c1-c1cccc(Cl)c1Cl` (stereo in doubt) [Compound 37, 2-((S)-6-Amino-2-aza-spiro[4.4]non-2-yl)-5-(2,3-dichloro-phenyl)-6-methyl-pyrimidine-4-carboxylic acid amide] is 1.1 µM.
Turning to `CC1(N)CCN(c2nc(N)c(-c3cccc(F)c3)c(C(N)=O)n2)CC1` [Compound 4, 6-Amino-2-(4-amino-4-methyl-piperidin-1-yl)-5-(3-fluoro-phenyl)pyrimidine-4-carboxylic Acid Amide], the half-maximal inhibitory concentration (IC50) turned out to be 3.7 µM.
The result for `NC(=O)c1nc(N2CC3CCCC(C2)C3N)nc(N)c1-c1cccc(Cl)c1Cl` (stereo not shown) [Compound 6, 6-amino-2-{9-amino-3-azabicyclo[3.3.1]nonan-3-yl}-5-(2,3-dichlorophenyl)pyrimidine-4-carboxamide] reads 2.7 µM; that for `CC(C)C1N(c2nc(N)c(-c3cccc(Cl)c3Cl)c(C(N)=O)n2)CC12CC(N)C(O)C2` (stereo not shown) [Compound 10, 6-amino-2-[6-amino-7-hydroxy-1-(propan-2-yl)-2-azaspiro[3.4]octan-2-yl]-5-(2,3-dichlorophenyl)pyrimidine-4-carboxamide], 9.6 µM.
The result for `NCC1CC2CCC(C1)N2c1nc(N)c(-c2cccc(Cl)c2Cl)c(C(N)=O)n1` (stereo not shown) [Compound 12, 6-amino-2-[3-(aminomethyl)-8-azabicyclo[3.2.1]octan-8-yl]-5-(2,3-dichlorophenyl)pyrimidine-4-carboxamide] reads 1.6 µM; that for `NC(=O)c1nc(N2C[C@H]3CCCCC[C@@H](C2)[C@@H]3N)nc(N)c1-c1cccc(Cl)c1Cl` [Compound 13, 6-amino-5-(2,3-dichlorophenyl)-2-[(1R,7S,11s)-11-amino-9-azabicyclo[5.3.1]undecan-9-yl]pyrimidine-4-carboxamide], greater than 10 µM.
The result for `CC1(N)CCN(c2nc(N)c(-c3cccc(Cl)c3Cl)c(C(=O)NCCO)n2)CC1` [Compound 17, 6-Amino-2-(4-amino-4-methyl-piperidin-1-yl)-5-(2,3-dichlorophenyl)-pyrimidine-4-carboxylic acid (2-hydroxy-ethyl)-amide] reads 12 µM.
